From PMC12239475, “Bioprocessing and characterization of thermostable phytase from Aspergillus terreus, an endophyte of Catharanthus roseus, with a potential activity to hydrolyze phytic acid in wheat bran” (BMC Biotechnology, 2025)

Test system: T1, phytase from A. terreus
T1 construct: gene phyA; native, secreted; purified from solid-state culture on wheat bran (acetone, Sephadex G100, Sepharose 4B); 85 kDa subunit by SDS-PAGE
Experiment: released inorganic phosphate, ammonium molybdate colorimetry at […] nm
Type: biochemical, Aspergillus terreus
Settings: standard assay: potassium phosphate buffer pH 7.4, 40 °C, 15 min, table title misprinted as A. flavus GST

Row | Compound | Km
1 | O=P(O)(O)OC[C@H]1OC(O)(COP(=O)(O)O)[C@@H](O)[C@@H]1O (stereo partly drawn) [Fructose 1,6-diphosphate] | 280 µM
2 | Nc1ncnc2c1ncn2[C@@H]1O[C@H](COP(=O)(O)OP(=O)(O)OP(=O)(O)O)[C@@H](O)[C@H]1O [ATP] | 190 µM
3 | O=P(O)(O)O[C@H]1[C@H](OP(=O)(O)O)[C@@H](OP(=O)(O)O)[C@H](OP(=O)(O)O)[C@@H](OP(=O)(O)O)[C@H]1OP(=O)(O)O [Phytic acid] | 25 µM
